Laboratory results reported in PMC9269301, “Phytochemical Analysis, Antioxidant, Antimicrobial, and Cytotoxic Activity of Different Extracts of Xanthoparmelia stenophylla Lichen from Stara Planina, Serbia” (Plants, 2022).
Converted amounts (≈) assume the structure as drawn. Marks after values point to notes of the source that are not given here.

How the values were obtained:
[1] = tested on: S. Typhimurium (isolate); test: Microdilution with resazurin, antibacterial; type: cell-based, Salmonella Typhimurium; details: Salmonella enterica, antibiotics
Procedure: (§1) The tested methanol, acetone, and n-hexane extracts, as well as the component (usnic acid) of X. stenophylla, were dissolved in 10% dimethyl sulfoxide (DMSO) and then diluted into the nutrient liquid medium. DMSO was obtained from Acros Organics (Fair Lawn, NJ, USA). Resazurin was obtained from Alfa Aesar GmbH & Co. (KG, Karlsruhe, Germany).
(§2) The antimicrobial activity of the extracts and components was tested against 19 microorganisms. The experiment involved 15 strains of bacteria (i.e., 6 standard strains: Staphylococcus aureus ATCC 6538, Bacillus subtilis ATCC 6633, Proteus mirabilis ATCC 12453, Pseudomonas aeruginosa ATCC 27853, Klebsiella pneumoniae ATCC 70063, and Escherichia coli ATCC 25922; 9 isolates: Staphylococcus aureus, Escherichia coli, Salmonella enterica, Salmonella Typhimurium, Proteus mirabilis, Klebsiella pneumoniae, Pseudomonas aeruginosa, Bacillus subtilis, and Bacillus cereus). In addition, four fungal strains (i.e., two standard strains: Candida albicans ATCC 10231 and Aspergillus niger ATCC 16888; two isolates: Saccharomyces cerevisiae and Candida albicans) were tested. All isolates were a generous gift from the Institute of Public Health, Kragujevac. The other microorganisms were provided from the collection held by the Microbiology Laboratory Faculty of Science, University of Kragujevac.
(§3) The bacterial suspensions were prepared by the direct colony method. The turbidity of the initial suspension was adjusted using a densitometer (DEN-1, BioSan, Riga, Latvia). When adjusted to the turbidity of the 0.5 McFarland’s standard (Andrews, 2005) the bacteria suspension contained approximately 10^8 colony-forming units (CFU)/mL, and the suspension of yeast contained 10^6 CFU/mL; 1:100 dilutions of the initial suspension were additionally prepared in sterile 0.85% saline. The suspensions of fungal spores were prepared by gentle stripping of spores from slopes with growing mycelia. The resulting suspensions were 1:1000 diluted in sterile 0.85% saline.
(§4) Antimicrobial activity was tested by determining the minimum inhibitory concentrations (MICs) and minimum microbicidal concentrations (MBCs) using the microdilution plate method with resazurin [56]. The 96-well plates were prepared by dispensing 100 μL of Mueller–Hinton broth for bacteria and Sabouard broth for fungi into each well. A 10 μL aliquot from the stock solution of the tested extract or component was added to the first row of the plate. Then, two-fold serial dilutions were performed using a multichannel pipette. The obtained concentration range was from 10 to 0.08 mg/mL. The method is described in detail in [76].
(§5) Each test included growth control and sterility control.
(§6) Minimum microbicidal concentrations were determined by plating 10 μL of samples from wells where no indicator color change or no mycelia growth was recorded on a nutrient agar medium. At the end of the incubation period, the lowest concentration with no growth (no colony) was defined as the minimum microbicidal concentration.

[2] = tested on: S. aureus (isolate); test: Microdilution with resazurin, antibacterial; type: cell-based, Staphylococcus aureus; details: Staphylococcus aureus, antibiotics
Procedure: as §1, §2, §3, §4, §5, §6

[3] = tested on: S. aureus ATCC 6538; test: Microdilution with resazurin, antibacterial; type: cell-based, Staphylococcus aureus; details: Staphylococcus aureus, ATCC6538, antibiotics
Procedure: as §1, §2, §3, §4, §5, §6

[4] = tested on: B. subtilis ATCC 6633; test: Microdilution with resazurin, antibacterial; type: cell-based, Bacillus subtilis; details: Bacillus subtilis, ATCC6633, antibiotics
Procedure: as §1, §2, §3, §4, §5, §6

[5] = tested on: B. subtilis (isolate); test: Microdilution with resazurin, antibacterial; type: cell-based, Bacillus subtilis; details: Bacillus subtilis, antibiotics
Procedure: as §1, §2, §3, §4, §5, §6

[6] = tested on: S. enterica (isolate); test: microbe, parasite or virus in culture; type: cell-based, Salmonella enterica; details: Salmonella enterica, S. enterica, antibiotics
Procedure: as §1, §2, §3, §4, §5, §6

[7] = tested on: P. aeruginosa (isolate); test: Microdilution with resazurin, antibacterial; type: cell-based, Pseudomonas aeruginosa; details: Pseudomonas aeruginosa, antibiotics
Procedure: as §1, §2, §3, §4, §5, §6

[8] = tested on: P. aeruginosa ATCC 27853; test: Microdilution with resazurin, antibacterial; type: cell-based, Pseudomonas aeruginosa; details: Pseudomonas aeruginosa, ATCC27853, antibiotics
Procedure: as §1, §2, §3, §4, §5, §6

[9] = tested on: P. mirabilis ATCC 12453; test: Microdilution with resazurin, antibacterial; type: cell-based, Proteus mirabilis; details: Proteus mirabilis, ATCC12453, antibiotics
Procedure: as §1, §2, §3, §4, §5, §6

[10] = tested on: P. mirabilis (isolate); test: Microdilution with resazurin, antibacterial; type: cell-based, Proteus mirabilis; details: Proteus mirabilis, antibiotics
Procedure: as §1, §2, §3, §4, §5, §6

[11] = tested on: E. coli ATCC 25922; test: Microdilution with resazurin, antibacterial; type: cell-based, Escherichia coli; details: Escherichia coli, ATCC25922, antibiotics
Procedure: as §1, §2, §3, §4, §5, §6

[12] = tested on: E. coli (isolate); test: Microdilution with resazurin, antibacterial; type: cell-based, Escherichia coli; details: Escherichia coli, antibiotics
Procedure: as §1, §2, §3, §4, §5, §6

[13] = tested on: B. cereus (isolate); test: Microdilution with resazurin, antibacterial; type: cell-based, Bacillus cereus; details: Bacillus cereus, antibiotics
Procedure: as §1, §2, §3, §4, §5, §6

[14] = tested on: K. pneumoniae (isolate); test: Microdilution with resazurin, antibacterial; type: cell-based, Klebsiella pneumoniae; details: Klebsiella pneumoniae, antibiotics
Procedure: as §1, §2, §3, §4, §5, §6

[15] = tested on: K. pneumoniae ATCC 70063; test: Microdilution with resazurin, antibacterial; type: cell-based, Klebsiella pneumoniae; details: Klebsiella pneumoniae, ATCC70063, antibiotics
Procedure: as §1, §2, §3, §4, §5, §6

[16] = Superoxide anion radical scavenging activity (NBT/NADH/PMS); type: biochemical; details: mean ± SD, triplicate
Procedure: All chemicals for the antioxidant activity test were purchased from Sigma Aldrich. All measurements were conducted in triplicate, and a Shimadzu UV-1800 spectrophotometer was used for all measurements during antioxidant activity experiments. The IC50 value was used for comparing different radical scavenging effects between investigated extracts, isolated compounds, and positive controls. […] [75] with modifications. […] To initiate the reaction, 0.1 mL of phenazine methosulfate (PMS) solution ([…] in 0.1 M phosphate buffer at pH 7.4) was added to each tube. The mixture was incubated at room temperature for 5 min, and then the absorbance was measured at 560 nm relative to the blank. Ascorbic acid, gallic acid, and Trolox were used as positive controls, and a decrease in absorbance indicated increased superoxide anion radical scavenging activity. […] Ac stands for absorbance of the control (which contains all reagents, except the tested extract or compound), and As is the absorbance of the sample.

[17] = DPPH radical scavenging activity; type: biochemical; details: mean ± SD, triplicate
Procedure: All chemicals for the antioxidant activity test were purchased from Sigma Aldrich. All measurements were conducted in triplicate, and a Shimadzu UV-1800 spectrophotometer was used for all measurements during antioxidant activity experiments. The IC50 value was used for comparing different radical scavenging effects between investigated extracts, isolated compounds, and positive controls. […] [71] with certain modifications. […] The solution was prepared ex tempore and stored in a tinted bottle in the refrigerator until the experiments were performed. […] The reaction mixture was vortexed and allowed to incubate in the dark for one hour, after which the absorbance was measured at 517 nm relative to the blank. […] Ac stands for absorbance of the control (which contains all reagents, except the tested extract or compound), and As is the absorbance of the sample.

[18] = Hydroxyl radical scavenging activity (2-deoxyribose); type: biochemical; details: mean ± SD, triplicate
Procedure: All chemicals for the antioxidant activity test were purchased from Sigma Aldrich. All measurements were conducted in triplicate, and a Shimadzu UV-1800 spectrophotometer was used for all measurements during antioxidant activity experiments. The IC50 value was used for comparing different radical scavenging effects between investigated extracts, isolated compounds, and positive controls. The ability to inhibit non-site-specific peroxidation mediated by hydroxyl radicals for […], and XSH was determined using the method previously described in the literature. During the experiment, in a reaction mixture that contained 500 μL of 5.6 mM 2-deoxy-D-ribose in KH2PO4-NaOH buffer (50 mM, pH 7.4), 100 μL of 1.0 mM aqueous ascorbic acid, 100 μL of 1.0 mM H2O2, and 200 μL of premixed solution of 100 μM FeCl3 and […] EDTA (1:1 v/v), 100 μL of extract dissolved in water was added. The tubes were vigorously shaken, vortexed, and incubated for 30 min at 50 °C. […] The mixture was vortexed again and heated in a water bath for 30 min at 50 °C. […] Ac stands for absorbance of the control (which contains all reagents, except the tested extract or compound), and As is the absorbance of the sample.

[19] = tested on: S. cerevisiae (isolate); test: Microdilution with resazurin, antifungal; type: cell-based, Saccharomyces cerevisiae; details: Saccharomyces cerevisiae, antimycotics
Procedure: as §1, §2, §3
as §4, with “[76]. […]” for “[76].”
Minimum microbicidal concentrations were determined by plating 10 μL of samples from wells where no indicator color change or no mycelia growth was recorded on a nutrient agar medium. […]

[20] = tested on: C. albicans ATCC 10231; test: Microdilution with resazurin, antifungal; type: cell-based, Candida albicans; details: Candida albicans, ATCC10231, antimycotics
Procedure: as §1, §2, §3, §4, §5, §6

[21] = tested on: C. albicans (isolate); test: Microdilution with resazurin, antifungal; type: cell-based, Candida albicans; details: Candida albicans, antimycotics
Procedure: as §1, §2, §3, §4, §5, §6

[22] = tested on: A. niger ATCC 16888; test: Microdilution with resazurin, antifungal; type: cell-based, Aspergillus niger; details: Aspergillus niger, ATCC16888, antimycotics
Procedure: as §1, §2, §3, §4, §5, §6

## CC1(C)S[C@@H]2[C@H](NC(=O)[C@H](N)c3ccccc3)C(=O)N2[C@H]1C(=O)O [AMP, ampicillin]
[1]; read-out: MBC
  MBC: 2 µg/mL (≈ 5.72 µM)
[1]; read-out: MIC
  MIC: 2 µg/mL (≈ 5.72 µM)
[2]; read-out: MBC
  MBC: < 0.06 µg/mL
[2]; read-out: MIC
  MIC: < 0.06 µg/mL
[3]; read-out: MBC
  MBC: 0.75 µg/mL (≈ 2.15 µM)
[3]; read-out: MIC
  MIC: 0.25 µg/mL (≈ 0.715 µM)
[4]; read-out: MBC
  MBC: 4 µg/mL (≈ 11.4 µM)
[4]; read-out: MIC
  MIC: 3 µg/mL (≈ 8.59 µM)
[5]; read-out: MBC
  MBC: 128 µg/mL (≈ 366 µM)
[5]; read-out: MIC
  MIC: 16 µg/mL (≈ 45.8 µM)
[6]; read-out: MBC
  MBC: 1 µg/mL (≈ 2.86 µM)
[6]; read-out: MIC
  MIC: 1 µg/mL (≈ 2.86 µM)
[7]; read-out: MBC
  MBC: > 128 µg/mL
[7]; read-out: MIC
  MIC: > 128 µg/mL
[8]; read-out: MBC
  MBC: > 128 µg/mL
[8]; read-out: MIC
  MIC: > 128 µg/mL
[9]; read-out: MBC
  MBC: 4 µg/mL (≈ 11.4 µM)
[9]; read-out: MIC
  MIC: 4 µg/mL (≈ 11.4 µM)
[10]; read-out: MBC
  MBC: > 128 µg/mL
[10]; read-out: MIC
  MIC: > 128 µg/mL
[11]; read-out: MBC
  MBC: 0.5 µg/mL (≈ 1.43 µM)
[11]; read-out: MIC
  MIC: 0.37 µg/mL (≈ 1.06 µM)
[12]; read-out: MBC
  MBC: 1.2 µg/mL (≈ 3.43 µM)
[12]; read-out: MIC
  MIC: 2.1 µg/mL (≈ 6.01 µM)
[13]; read-out: MBC
  MBC: 6 µg/mL (≈ 17.2 µM)
[13]; read-out: MIC
  MIC: 4 µg/mL (≈ 11.4 µM)
[14]; read-out: MBC
  MBC: > 128 µg/mL
[14]; read-out: MIC
  MIC: > 128 µg/mL
[15]; read-out: MBC
  MBC: > 128 µg/mL
[15]; read-out: MIC
  MIC: > 128 µg/mL

## O=C1O[C@H]([C@@H](O)CO)C(O)=C1O [Ascorbic acid, ascorbic acid]
[16]
  Superoxide Anion Radical Scavenging Activity (IC50): 105.62 ± 0.84 ^c,d,e,f µg/mL
[17]
  DPPH Radical Scavenging Activity (IC50): 6.31 ± 0.78 ^a,b,c,d µg/mL
[18]
  Hydroxyl Radical Scavenging Activity (IC50): 155.91 ± 0.64 ^a,d,e µg/mL

## OC(Cn1cncn1)(Cn1cncn1)c1ccc(F)cc1F [FC, fluconazole]
[19]; read-out: MFC
  MFC: 7.81 µg/mL (≈ 25.5 µM)
[19]; read-out: MIC
  MIC: 7.81 µg/mL (≈ 25.5 µM)
[20]; read-out: MFC
  MFC: 31.2 µg/mL (≈ 102 µM)
[20]; read-out: MIC
  MIC: 31.2 µg/mL (≈ 102 µM)
[21]; read-out: MFC
  MFC: 62.5 µg/mL (≈ 204 µM)
[21]; read-out: MIC
  MIC: 62.5 µg/mL (≈ 204 µM)
[22]; read-out: MFC
  MFC: 500 µg/mL (≈ 1630 µM)
[22]; read-out: MIC
  MIC: 250 µg/mL (≈ 816 µM)

## O=C(O)c1cc(O)c(O)c(O)c1 [Gallic acid, gallic acid]
[16]
  Superoxide Anion Radical Scavenging Activity (IC50): 68.55 ± 0.45 ^a,b,c,d,e µg/mL
[17]
  DPPH Radical Scavenging Activity (IC50): 3.72 ± 0.65 ^a,b,c,d,e µg/mL
[18]
  Hydroxyl Radical Scavenging Activity (IC50): 45.12 ± 0.51 ^a,b,c,d,e µg/mL

## Cc1c(C)c2c(c(C)c1O)CCC(C)(C(=O)O)O2 (centres unmarked) [Trolox, 6-hydroxy-2,5,7,8-tetramethylchroman-2-carboxylic acid]
[16]
  Superoxide Anion Radical Scavenging Activity (IC50): 135.14 ± 0.88 ^a,b,d,e,f µg/mL
[17]
  DPPH Radical Scavenging Activity (IC50): 10.79 ± 0.83 ^a,b,c,d,e µg/mL
[18]
  Hydroxyl Radical Scavenging Activity (IC50): 131.45 ± 0.56 ^c,e µg/mL
